Data as given in patent US20250171495A1, “MUTLI-TARGETED SERINE PROTEASE INHIBITORS FOR TREATMENT OF CANCER AND VIRAL INFECTION” (Washington University, priority 2023, published 2025).
pIC50: −log10 of the molar value. Where two headings read alike, the source gives them in different places. Numbered stars: 1 amine (or outer) side, 2 acyl side, 3 side chain; on linkers, the order of the positions; unused ones are H or OH. Square brackets hold non-standard residues; d marks the D form. Peptide text beside a SMILES is read from it. X1 = N=C(N)NCCC[C@H](N[*:1])C(=O)c1nc2ccc(C(=O)[*:2])cc2s1

How the values were obtained:
matriptase = biological target: T1, matriptase (Homo sapiens, UniProt Q9Y5Y6); test: Fluorogenic kinetic enzyme inhibitor assay, matriptase; assay type: biochemical
T1 construct: purchased R&D Systems 3946-SEB-010
T1 sequence (Q9Y5Y6 615-855 limits assumed): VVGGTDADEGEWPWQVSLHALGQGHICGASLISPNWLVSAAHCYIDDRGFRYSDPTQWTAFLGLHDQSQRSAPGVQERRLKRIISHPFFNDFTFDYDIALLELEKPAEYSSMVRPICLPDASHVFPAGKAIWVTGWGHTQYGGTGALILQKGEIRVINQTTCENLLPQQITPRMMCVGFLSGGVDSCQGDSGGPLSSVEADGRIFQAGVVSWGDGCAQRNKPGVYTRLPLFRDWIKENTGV

hepsin = biological target: T2, hepsin (Homo sapiens, UniProt P05981); test: Fluorogenic kinetic enzyme inhibitor assay, hepsin; assay type: biochemical
T2 construct: purchased R&D Systems 4776-SE-010
T2 sequence (P05981 163-417 limits assumed): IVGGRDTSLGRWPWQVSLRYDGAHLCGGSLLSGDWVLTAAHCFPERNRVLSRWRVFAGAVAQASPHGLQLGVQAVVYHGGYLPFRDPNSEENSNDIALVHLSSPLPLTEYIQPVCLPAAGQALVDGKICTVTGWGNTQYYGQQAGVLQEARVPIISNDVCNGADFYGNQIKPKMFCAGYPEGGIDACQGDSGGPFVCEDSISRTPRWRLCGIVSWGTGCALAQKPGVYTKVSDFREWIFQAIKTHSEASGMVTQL
T2 sequence (P05981 1-162 partner limits assumed): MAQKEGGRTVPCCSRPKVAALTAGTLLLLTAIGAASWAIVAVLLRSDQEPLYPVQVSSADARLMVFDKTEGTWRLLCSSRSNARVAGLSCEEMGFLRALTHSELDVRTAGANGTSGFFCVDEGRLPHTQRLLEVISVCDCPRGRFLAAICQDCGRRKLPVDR

HGFA = biological target: T3, HGFA (Homo sapiens, UniProt Q04756); test: Fluorogenic kinetic enzyme inhibitor assay, HGFA; assay type: biochemical
T3 construct: purchased R&D Systems 1514-SE-010
T3 sequence (Q04756 408-655 limits assumed): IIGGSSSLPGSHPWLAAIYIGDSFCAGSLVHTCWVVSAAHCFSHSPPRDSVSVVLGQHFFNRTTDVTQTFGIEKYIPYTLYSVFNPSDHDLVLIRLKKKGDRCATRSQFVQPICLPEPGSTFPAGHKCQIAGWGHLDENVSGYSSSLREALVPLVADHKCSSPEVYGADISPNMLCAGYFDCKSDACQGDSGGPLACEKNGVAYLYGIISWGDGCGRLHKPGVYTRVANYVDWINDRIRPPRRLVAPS
T3 sequence (Q04756 373-407 partner limits assumed): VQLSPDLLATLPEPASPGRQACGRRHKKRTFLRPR

Thrombin = Thrombin (Homo sapiens, UniProt P00734); test: Fluorogenic assay, thrombin; assay type: biochemical
Factor Xa = biological target: T4, Factor Xa (Homo sapiens, UniProt P00742); test: Fluorogenic assay, Factor Xa; assay type: biochemical; conditions: read-out: Factor Xa IC50
T4 construct: TMPRSS2; Matriptase; Hepsin; HGFA; Thrombin; Factor Xa
T4 sequence (P00742 235-488 limits assumed): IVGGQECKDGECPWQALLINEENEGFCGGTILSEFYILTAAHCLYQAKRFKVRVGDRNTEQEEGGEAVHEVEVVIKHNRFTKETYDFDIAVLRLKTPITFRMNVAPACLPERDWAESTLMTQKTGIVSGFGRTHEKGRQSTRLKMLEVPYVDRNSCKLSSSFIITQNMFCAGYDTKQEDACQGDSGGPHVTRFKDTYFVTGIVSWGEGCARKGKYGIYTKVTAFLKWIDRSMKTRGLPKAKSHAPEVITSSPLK
T4 sequence (P00742 41-179 partner limits assumed): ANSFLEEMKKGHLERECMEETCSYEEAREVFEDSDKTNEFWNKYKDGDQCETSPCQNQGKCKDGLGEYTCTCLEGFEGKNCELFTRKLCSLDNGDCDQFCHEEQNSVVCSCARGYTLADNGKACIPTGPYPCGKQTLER

SARS-CoV-2 = assay type: cell-based; set-up: unit not given here
TMPRSS2 = TMPRSS2 (Homo sapiens, UniProt O15393); test: Fluorogenic kinetic enzyme inhibitor assay, TMPRSS2; assay type: biochemical; set-up: purchased Cusabio Technology CSB-YP023924HU
Chain of TMPRSS2 (O15393 106-492 limits assumed): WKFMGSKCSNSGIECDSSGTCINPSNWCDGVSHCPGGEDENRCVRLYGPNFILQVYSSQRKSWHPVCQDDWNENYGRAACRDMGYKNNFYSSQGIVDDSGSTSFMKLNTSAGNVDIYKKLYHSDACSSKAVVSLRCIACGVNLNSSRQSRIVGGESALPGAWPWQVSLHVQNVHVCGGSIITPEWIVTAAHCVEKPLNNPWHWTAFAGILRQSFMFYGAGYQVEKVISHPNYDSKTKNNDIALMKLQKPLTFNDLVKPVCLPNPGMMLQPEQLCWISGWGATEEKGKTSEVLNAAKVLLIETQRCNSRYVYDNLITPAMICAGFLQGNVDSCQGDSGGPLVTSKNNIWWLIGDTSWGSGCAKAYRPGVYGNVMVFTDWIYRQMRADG

[1] = 30 min incubation, Boc-QLR-AMC at Km, read-out: HGFA IC50
[2] = 30 min incubation, Boc-QAR-AMC at Km, read-out: TMPRSS2 IC50

Question: Which ring closure, yield of all isomers (from CC(=O)N[C@@H](CC(=O)O)C(=O)N[C@@H](CC(C)C)C(=O)N[C@@H](CCCCN)C(=O)O, amide bond, EDCI/HOBt/iPr2NEt, DMF, 21.25 mM, 25.0 °C, 16.0 h, 9 steps) does the source give for CC(=O)N[C@H]1CC(=O)NCCCC[C@@H](C(=O)O)NC(=O)[C@H](CC(C)C)NC1=O here?
Answer: The ring closure, yield of all isomers was 59.1%.

Question: With COC(=O)[C@@H]1CC=CCOc2ccc(cc2)C[C@H](NC(C)=O)C(=O)N[C@@H](CC(C)C)C(=O)N1 [Ac-cyclo-(L) Tyr-Leu-allyl-OMe] as the compound, how does the ring closure, yield of all isomers (from C=CCOc1ccc(C[C@H](NC(C)=O)C(=O)N[C@@H](CC(C)C)C(=O)N[C@@H](CC=C)C(=O)OC)cc1, rcm bond, Grubbs 2nd generation catalyst, DCM, 1.28 mM, 40.0 °C, 18.0 h) read?
Answer: The ring closure, yield of all isomers was 65%.

Question: With CC(=O)N[C@H]1CC(=O)NCCCC[C@@H](C(=O)N[C@@H](CCCNC(=N)N)C(=O)c2nc3ccccc3s2)NC(=O)[C@H](CC(C)C)NC1=O [VD2173, Ac-Cyclo(DLK)—R-ketobenzothiazole] as the compound, how does the pIC50 (matriptase; read-out: Matriptase IC50) read?
Answer: The pIC50 was 8.59.

Question: And the pIC50 (hepsin; read-out: Hepsin IC50)?
Answer: Its pIC50 is 7.72.

Question: And the pIC50 (HGFA; read-out: HGFA IC50)?
Answer: The pIC50 was 5.07.

Question: What about the pIC50 (Thrombin) of the same compound?
Answer: Its pIC50 is 5.09.

Question: What about the pIC50 (Factor Xa) of the same compound?
Answer: Its pIC50 is 5.69.

Question: What about the “SARS-CoV-2 Calu-3- titer (0.01 uM)” value (SARS-CoV-2) of the same compound?
Answer: The value was 11.

Question: What about the “SARS-CoV-2 Calu-3 titer (0.1 uM)” value (SARS-CoV-2) of the same compound?
Answer: Its value is 17.

Question: And the “SARS-CoV-2 Calu-3 titer (1 uM)” value (SARS-CoV-2)?
Answer: Its value is 57.

Question: What about the pIC50 (TMPRSS2) of the same compound?
Answer: Its pIC50 is 8.67.

Question: With CC(=O)N[C@H]1Cc2ccc(cc2)OC/C=C\C[C@@H](C(=O)N[C@@H](CCCNC(=N)N)C(=O)c2nc3ccccc3s2)NC(=O)[C@@H](Cc2c[nH]c3ccccc23)NC1=O [VD5027, N-[(S)-1-[(1,3-benzothiazol-2-yl)carbonyl]-4-guanidinobutyl]-(4Z,7S,10R,13S)-13-acetylamino-10-[(3-indolyl)methyl]-9,12-dioxo-2-oxa-8,11-diazabicyclo[13.2.2]nonadeca-1(17),4,15,18-tetraene-7-carboxamide] as the compound, how does the pIC50 (matriptase; 30 min incubation, Boc-QAR-AMC at Km, read-out: Matriptase IC50) read?
Answer: The pIC50 was 8.25.

Question: And the pIC50 (hepsin; 30 min incubation, Boc-QAR-AMC at Km, read-out: Hepsin IC50)?
Answer: The pIC50 was 9.16.

Question: What about the pIC50 (HGFA; [1]) of the same compound?
Answer: Its pIC50 is 8.34.

Question: What about the pIC50 (Thrombin) of the same compound?
Answer: The pIC50 was 4.70.

Question: And the pIC50 (Factor Xa)?
Answer: Its pIC50 is 5.87.

Question: What about the pIC50 (TMPRSS2; [2]) of the same compound?
Answer: Its pIC50 is 9.01.

Question: Which results are given for CC(=O)N[C@H]1Cc2ccc(cc2)Oc2cccc(c2)C[C@@H](C(=O)N[C@@H](CCCNC(=N)N)C(=O)c2nc3ccccc3s2)NC(=O)[C@H](CC(C)C)NC1=O [VD5064B, N-[(S)-1-[(1,3-benzothiazol-2-yl)carbonyl]-4-guanidinobutyl]-(9S,12S,15S)-15-acetylamino-12-isobutyl-11,14-dioxo-2-oxa-10,13-diazatricyclo[15.2.2.1^3,^7]docosa-1(19),3,5,7(22),17,20-hexaene-9-carboxamide]?
Answer: pIC50 (matriptase; read-out: Matriptase IC50): 7.05; pIC50 (hepsin; read-out: Hepsin IC50): 9.77; pIC50 (HGFA; [1]): 7.21; pIC50 (Thrombin): < 4.70; pIC50 (Factor Xa): 6.02; pIC50 (TMPRSS2; [2]): 7.96

Question: With CC(=O)N[C@@H](CO)C(=O)N[C@@H](CCCCN)C(=O)N[C@@H](Cc1ccccc1)C(=O)N[C@@H](CCCNC(=N)N)C(=O)c1nccs1 [ZFH6095, N-[(S)-1-[N-(S)-4-guanidino-1-[(1,3-thiazol-2-yl)carbonyl]butylcarbamoyl]-2-phenylethyl](S)-2-[(S)-2-acetylamino-3-hydroxypropionylamino]-6-aminohexanamide] as the compound, how does the pIC50 (matriptase) read?
Answer: The pIC50 was 8.21.

Question: And the pIC50 (hepsin; read-out: Hepsin IC50)?
Answer: Its pIC50 is 7.77.

Question: What about the pIC50 (HGFA) of the same compound?
Answer: Its pIC50 is 6.94.

Question: What about the pIC50 (Thrombin) of the same compound?
Answer: Its pIC50 is less than 4.70.

Question: And the pIC50 (Factor Xa)?
Answer: The pIC50 was 5.97.

Question: What about the pIC50 (TMPRSS2; read-out: TMPRSS2 IC50) of the same compound?
Answer: The pIC50 was 8.10.

Question: With CC(=O)N[C@@H](CCCCN)C(=O)N[C@@H](CCC(N)=O)C(=O)N[C@@H](Cc1ccccc1)C(=O)N[C@@H](CCCNC(=N)N)C(=O)c1nccs1 [ZFH6101, N-[(S)-1-[N-(S)-4-guanidino-1-[(1,3-thiazol-2-yl)carbonyl]butylcarbamoyl]-2-phenylethyl](S)-2-[(S)-1-acetylamino-5-aminopentylcarbonylamino] glutaramide] as the compound, how does the pIC50 (matriptase) read?
Answer: Its pIC50 is 8.85.

Question: And the pIC50 (hepsin; read-out: Hepsin IC50)?
Answer: The pIC50 was 8.92.

Question: What about the pIC50 (HGFA; read-out: HGFA IC50) of the same compound?
Answer: The pIC50 was 6.94.

Question: And the pIC50 (Thrombin)?
Answer: Its pIC50 is less than 4.70.

Question: What about the pIC50 (Factor Xa) of the same compound?
Answer: The pIC50 was 6.80.

Question: And the pIC50 (TMPRSS2; read-out: TMPRSS2 IC50)?
Answer: Its pIC50 is 7.54.

Question: With CC(=O)N[C@@H](Cc1ccccc1)C(=O)N[C@@H](CC(C)C)C(=O)N[C@@H](Cc1ccccc1)C(=O)N[C@@H](CCCNC(=N)N)C(=O)c1nc2ccccc2s1 [ZFH7063, N-[(S)-1-[N-(S)-1-[(1,3-benzothiazol-2-yl)carbonyl]-4-guanidinobutylcarbamoyl]-2-phenylethyl](S)-2-[(S)-2-acetylamino-3-phenylpropionylamino]-4-methylvaleramide] as the compound, how does the pIC50 (matriptase) read?
Answer: Its pIC50 is 8.14.

Question: And the pIC50 (hepsin)?
Answer: Its pIC50 is 8.54.

Question: What about the pIC50 (HGFA) of the same compound?
Answer: The pIC50 was 6.64.

Question: And the pIC50 (Thrombin)?
Answer: The pIC50 was less than 4.70.

Question: And the pIC50 (Factor Xa)?
Answer: Its pIC50 is 7.59.

Question: What about the pIC50 (TMPRSS2; read-out: TMPRSS2 IC50) of the same compound?
Answer: The pIC50 was 8.52.

Question: What does the source list for CC(=O)N[C@@H](Cc1c[nH]c2ccccc12)C(=O)N[C@@H](CC(C)C)C(=O)N[C@@H](Cc1ccccc1)C(=O)N[C@@H](CCCNC(=N)N)C(=O)c1nc2ccccc2s1 [ZFH7064, N-[(S)-1-[N-(S)-1-[(1,3-benzothiazol-2-yl)carbonyl]-4-guanidinobutylcarbamoyl]-2-phenylethyl](S)-2-[(S)-2-acetylamino-3-(3-indolyl)propionylamino]-4-methylvaleramide]?
Answer: pIC50 (matriptase): 7.92; pIC50 (hepsin): 9.16; pIC50 (HGFA): 6.58; pIC50 (Thrombin): < 4.70; pIC50 (Factor Xa): 8.70; pIC50 (TMPRSS2; read-out: TMPRSS2 IC50): 10.04

Question: What does the source list for CC(=O)N[C@@H](CO)C(=O)N[C@@H](CCCCN)C(=O)N[C@@H](CC(C)C)C(=O)N[C@@H](CCCNC(=N)N)C(=O)c1nc2ccc(C(=O)N[C@H](C(N)=O)C(C)C)cc2s1 [ZFH7116, N-[(S)-1-carbamoyl-2-methylpropyl]-2-[(S)-2-[(S)-2-[(S)-1-[(S)-2-acetylamino-3-hydroxypropionylamino]-5-aminopentylcarbonyl-amino]-4-methylvalerylamino]-5-guanidinovaleryl]-1,3-benzothiazole-6-carboxamide] (Ac-SKL[X1]V-NH2)?
Answer: pIC50 (matriptase; read-out: Matriptase IC50): 7.85; pIC50 (hepsin; read-out: Hepsin IC50): 9.00; pIC50 (HGFA; read-out: HGFA IC50): 7.64; pIC50 (Thrombin): 5.12; pIC50 (Factor Xa): 6.29; pIC50 (TMPRSS2): 8.60
